Results reported in patent publication US10722484B2, “Methods of cancer treatment” (K-Gen, Inc., priority 2016, dated 2020).
Where two headings read alike, the source gives them in different places.

Key:
A549 = assay: Proliferation assay (CellTiter Glo); type: cell-based; settings: 96 hours
Method: (§1) The dose range for most compounds was 4.6 nM-30 μM. The dose ranges for some compounds were adjusted downward to 0.46 nM-3 μM or 0.08 nM-0.5 μM or 0.03 nM-0.2 μM. […] The results are shown in Tables 3-6 for pancreatic cancer, lung cancer, colon/gastric cancer, and leukemia.

AGS = assay: Proliferation assay (CellTiter Glo); type: cell-based; settings: 96 hours; for EC50: Homo sapiens
Method: as §1

AsPC-1 = assay: Proliferation assay (CellTiter Glo); type: cell-based; settings: 96 hours; for EC50: Homo sapiens, ASPC1
Method: as §1

CCRF-CEM = assay: Proliferation assay (CellTiter Glo); type: cell-based; settings: 96 hours; for EC50: Homo sapiens
Method: as §1

Capan-1 = assay: Proliferation assay (CellTiter Glo); type: cell-based; settings: 96 hours
Method: as §1

H358 = assay: Proliferation assay (CellTiter Glo); type: cell-based; settings: HE58, 96 hours; for EC50: Homo sapiens, NCI-H358
Method: as §1

H441 = assay: Proliferation assay (CellTiter Glo); type: cell-based; settings: 96 hours; for EC50: Homo sapiens, NCI-H441
Method: as §1

H727 = assay: Proliferation assay (CellTiter Glo); type: cell-based; settings: 96 hours; for EC50: Homo sapiens, NCI-H727
Method: as §1

HCT116 = assay: Proliferation assay (CellTiter Glo); type: cell-based; settings: 96 hours; for EC50: Homo sapiens, HCT-116
Method: as §1

KP-4 = assay: Proliferation assay (CellTiter Glo); type: cell-based; settings: 96 hours
Method: as §1

LS180 = assay: Proliferation assay (CellTiter Glo); type: cell-based; settings: 96 hours
Method: as §1

Pan2.03 = assay: Proliferation assay (CellTiter Glo); type: cell-based; settings: 96 hours
Method: as §1

Pan2.13 = assay: Proliferation assay (CellTiter Glo); type: cell-based; settings: 96 hours
Method: as §1

SW620 = assay: Proliferation assay (CellTiter Glo); type: cell-based; settings: 96 hours
Method: as §1

MiaPaCa-2 = assay: Proliferation assay (CellTiter Glo); type: cell-based; settings: 96 hours; for EC50: Homo sapiens, MIA PaCa-2
HL60 = assay: Proliferation assay (CellTiter Glo); type: cell-based, human; settings: 96 hours
Method: as §1

THP1 = assay: Proliferation assay (CellTiter Glo); type: cell-based, human; settings: 96 hours
Method: as §1

[1] = system: leukemia inhibitory factor (LIF); assay: Western blot analysis of PKC signaling pathway elements in A549 cells; type: cell-based; settings: Western blot, concentrations of Table 8 (K101A 0.1, 0.5, […]; K101E […]; K102 0.1, 0.5 μM; K103 0.01 μM; Ref1 1 μM; Ref2 0.01 μM)
Method: (§2) Cancer cells (2-8 million cells) were seeded in 10 cm dishes and grown overnight. For A549 lung cancer cell line, about 3 million cells were seeded. Cells were then treated with different drugs at concentrations described in Table 8 for a period of time up to 48 hours. Cells were lysed in 0.3-0.5 mL of RIPA buffer (Sigma) supplemented with protease inhibitors (Roche) and phosphatase inhibitors (Sigma). Lysates were assayed for protein concentration using BCA kit (Pierce). Normalized amount of lysates (20-30 μg protein/lane) were run on 4-12% NuPage gel (Life Technologies) and the proteins were transferred to the PVDF or nitrocellulose membrane using iBlot® Transfer Stack (Life Technologies). The membranes were probed with primary antibodies shown in Table 9 at 4° C. overnight after blocking with 1×TBST containing 5% non-fat milk. Antibodies from other vendors could also be used in Western blot analysis. After washing 5 times with 1×TBS containing 0.1% Tween20, the membranes were probed with 2nd antibodies Anti-mouse IgG Dylight 800 conjugate or Anti-rabbit IgG DyLight 680 conjugate (1:10000; Cell signaling or similar IR 2nd antibodies from different vendors) at room temperature for one hour. After washing 5 times, the membranes were scanned using Odyssey® Imaging System (Licor Biosciences).

phospho-PKC (pan) = assay: as above; type: cell-based; settings: 48 hours, K103, K102 at 0.5 μM, K101A at […]
Method: as §2

CCCCCCCCCCCCCC(=O)O[C@@H]1[C@@H](C)[C@@]2(O)[C@@H](C=C(CO)C[C@]3(O)C(=O)C(C)=C[C@@H]23)[C@@H]2C(C)(C)[C@]12OC(C)=O [Compound K103, 12-O-Tetradecanoylphorbol-13-acetate]
Top Inhibition % (A549; A549, % of top inhibition): 80.6% | EC50 (A549; Homo sapiens, A549 (K-RAS: G12S), absolute EC50, read-out: Ab EC50): < 4.6 nM | Top Inhibition % (AGS; AGS, % of top inhibition): 47.2% | EC50 (AGS; AGS (gastric, K-RAS: G12D), absolute EC50, read-out: Ab EC50): > 500 nM | EC50 (AGS; AGS, relative EC50, read-out: Re EC50): 1.1 nM | Top Inhibition % (AsPC-1; AsPC-1, % of top inhibition): 32.7% | EC50 (AsPC-1; AsPC-1 (K-RAS: G12D), absolute EC50, read-out: Ab EC50): > 500 nM | EC50 (AsPC-1; AsPC-1, relative EC50, read-out: Re EC50): 1.3 nM | Top Inhibition % (CCRF-CEM; CCRF-CEM, % of top inhibition): 37.7% | EC50 (CCRF-CEM; CCRF-CEM (K-RAS: G12D), absolute EC50, read-out: Ab EC50): > 500 nM | EC50 (CCRF-CEM; CCRF-CEM, relative EC50, read-out: Re EC50): 0.24 nM | Top Inhibition % (Capan-1; Capan-1, % of top inhibition): 51.0% | EC50 (Capan-1; Homo sapiens, Capan-1 (K-RAS: G12V), absolute EC50, read-out: Ab EC50): 14 nM | Top Inhibition % (H358; % of top inhibition): 59.6% | EC50 (H358; absolute EC50, read-out: Ab EC50): 2.2 nM | EC50 (H358; relative EC50, read-out: Re EC50): 0.4 nM | Top Inhibition % (H441; H441, % of top inhibition): 46.7% | EC50 (H441; H441 (K-RAS: G12V), absolute EC50, read-out: Ab EC50): > 500 nM | EC50 (H441; H441, relative EC50, read-out: Re EC50): 0.75 nM | Top Inhibition % (H727; H727, % of top inhibition): 57.4% | EC50 (H727; H727 (K-RAS: G12V), absolute EC50, read-out: Ab EC50): 2.2 nM | EC50 (H727; H727, relative EC50, read-out: Re EC50): 0.37 nM | Top Inhibition % (HCT116; HCT116, % of top inhibition): 21.4% | EC50 (HCT116; HCT116 (K-RAS: G13D), absolute EC50, read-out: Ab EC50): > 500 nM | EC50 (HCT116; HCT116, relative EC50, read-out: Re EC50): 1.2 nM | EC50 (KP-4; Homo sapiens, KP-4 (K-RAS: G12C), absolute EC50, read-out: Ab EC50): < 4.6 nM | Top Inhibition % (KP-4; KP-4, % of top inhibition): 70.3% | EC50 (LS180; Homo sapiens, LS180 (K-RAS: G12D), absolute EC50, read-out: Ab EC50): > 10000 nM | Top Inhibition % (LS180; LS180, % of top inhibition): 14.7% | EC50 (Pan2.03; Pan2.03 (K-RAS: G12D), absolute EC50, read-out: Ab EC50): > 500 nM | Top Inhibition % (Pan2.03; Pan2.03, % of top inhibition): 32.2% | EC50 (Pan2.03; Pan2.03, relative EC50, read-out: Re EC50): 0.9 nM | EC50 (Pan2.13; Pan2.13 (K-RAS: Q61H), absolute EC50, read-out: Ab EC50): > 500 nM | Top Inhibition % (Pan2.13; Pan2.13, % of top inhibition): 41.9% | EC50 (Pan2.13; Pan2.13, relative EC50, read-out: Re EC50): 0.66 nM | EC50 (SW620; Homo sapiens, SW-620, SW620 (K-RAS: G12V), absolute EC50, read-out: Ab EC50): > 10000 nM | Top Inhibition % (SW620; SW620, % of top inhibition): 1.2% | EC50 (MiaPaCa-2; MiaPaCa-2 (K-RAS: G12C), absolute EC50, read-out: Ab EC50): 0.28 nM | EC50 (MiaPaCa-2; MiaPaCa-2, relative EC50, read-out: Re EC50): 0.24 nM | Top Inhibition % (MiaPaCa-2; MiaPaCa-2, % of top inhibition): 81.1% | Top Inhibition % (HL60; HL60, % of top inhibition): 60.0% | EC50 (HL60; Homo sapiens, HL-60, HL60 (N-RAS: Q61L), absolute EC50, read-out: Ab EC50): < 4.6 nM | EC50 (THP1; Homo sapiens, THP-1, THP1 (N-RAS: G12D), absolute EC50, read-out: Ab EC50): < 4.6 nM | Top Inhibition % (THP1; THP1, % of top inhibition): 52.9% | protein levels of the leukemia inhibitory factor (LIF) [1]: did not affect | phospho-PKC (pan) levels (phospho-PKC (pan)): reduction
